Where a SMILES comes first, the peptide text is derived from it.
Columns and labels:
Test in all cases: microbe, parasite or virus in culture
E. coli LEC001 = type: cell-based, Escherichia coli
Procedure, shortened: (§1)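 Peptides 128→2 μg/mL, 2-fold series; inoculum ~5 × 10^5 CFU/mL from overnight culture (OD600 0.01, mixed 1:1). MHB non-cation-adjusted for bacteria, RPMI 1640 + 2% glucose for fungi. 37 °C, 20 h, OD600. MIC50/MIC90 at 50%/90% inhibition; n ≥ 3.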

E. coli NCTC 12923 = type: cell-based, Escherichia coli
Procedure, shortened: as §1

P. aeruginosa NCTC 13437 = type: cell-based, Pseudomonas aeruginosa; conditions: P. aeruginosa NCTC 13437 (R)
Procedure, shortened: as §1

A. baumannii ATCC 17978 = type: cell-based, Acinetobacter baumannii
Procedure, shortened: as §1

A. baumannii AYE = type: cell-based, Acinetobacter baumannii; conditions: A. baumannii AYE (R)
Procedure, shortened: as §1

K. pneumoniae M6 = type: cell-based, Klebsiella pneumoniae
Procedure, shortened: as §1

K. pneumoniae NCTC 13368 = type: cell-based, Klebsiella pneumoniae; conditions: K. pneumoniae NCTC 13368 (R)
Procedure, shortened: as §1

S. aureus (MRSA) 1199B = type: cell-based, Staphylococcus aureus; conditions: S. aureus (MRSA) 1199B (R)
Procedure, shortened: as §1

[1] = system: S. aureus (MRSA) NCTC 13616; type: cell-based, Staphylococcus aureus; conditions: S. aureus (MRSA) NCTC 13616 (R)
Procedure, shortened: as §1

[2] = system: S. aureus (MSSA) ATCC 9144; type: cell-based, Staphylococcus aureus
Procedure, shortened: as §1

C. auris TDG 1912 = type: cell-based, Candida auris; conditions: TDG 1912, 20 h
Procedure, shortened: as §1

C. albicans NCPF 3281 = type: cell-based
Procedure, shortened: as §1

C. glabrata NCPF 8018 = type: cell-based
Procedure, shortened: as §1

C. krusei NCPF 3876 = type: cell-based
Procedure, shortened: as §1

[3] = system: C. parapsilosis NCPF 3209; type: cell-based
Procedure, shortened: as §1

C. tropicalis NCPF 8760 = type: cell-based
Procedure, shortened: as §1

[4] = MHB, 37 °C, 20 h, OD600, min. three biological repeats

For `CC(C)[C@H](NC(=O)CNC(=O)[C@H](CCCNC(=N)N)NC(=O)[C@H](CCCNC(=N)N)NC(=O)[C@H](CS)NC(=O)[C@@H](NC(=O)[C@H](CS)NC(=O)[C@@H](N)CCCNC(=N)N)C(C)C)C(=O)N[C@@H](CS)C(=O)N[C@@H](CCCNC(=N)N)C(=O)N[C@@H](CS)C(=O)N[C@H](C(=O)N[C@@H](CS)C(=O)N[C@@H](CCCNC(=N)N)C(=O)N[C@@H](CCCNC(=N)N)C(N)=O)C(C)C` [BTD15a] (H-RCVCRRGVCRCVCRR-NH2; N-terminus assumed), the “Modal MIC” value (E. coli LEC001; E. coli LEC001 (R), MHB, 37 °C, 20 h, OD600, min. three biological repeats) was 16 µg/mL, the “Modal MIC” value (E. coli LEC001; LEC001, 20 h) was 8.8 µM and the “Modal MIC” value (E. coli NCTC 12923; E. coli NCTC 12923 (S), MHB, ~5×10^5 CFU/mL, 37 °C, 20 h, OD600, min. three biological repeats) was 8 µg/mL. For the same compound, the “Modal MIC” value (E. coli NCTC 12923; NCTC 12923, 20 h) was 4.4 µM, the “Modal MIC” value (P. aeruginosa NCTC 13437; [4]) was greater than 128 µg/mL and the “Modal MIC” value (P. aeruginosa NCTC 13437; shown in µM) was greater than 70.2 µM. The “Modal MIC” value (A. baumannii ATCC 17978; A. baumannii ATCC 17978 (S), MHB, 37 °C, 20 h, OD600, min. three biological repeats) was 4 µg/mL, the “Modal MIC” value (A. baumannii ATCC 17978; ATCC 17978, 20 h) was 2.2 µM and the “Modal MIC” value (A. baumannii AYE; [4]) was 8 µg/mL. The “Modal MIC” value (A. baumannii AYE; shown in µM) was 4.4 µM, the “Modal MIC” value (K. pneumoniae M6; K. pneumoniae M6 (S), MHB, 37 °C, 20 h, OD600, min. three biological repeats) was 32 µg/mL and the “Modal MIC” value (K. pneumoniae M6; M6, 20 h) was 17.5 µM. The “Modal MIC” value (K. pneumoniae NCTC 13368; [4]) was 32 µg/mL, the “Modal MIC” value (K. pneumoniae NCTC 13368; shown in µM) was 17.5 µM and the “Modal MIC” value (S. aureus (MRSA) 1199B; [4]) was 8 µg/mL. For the same compound, the “Modal MIC” value (S. aureus (MRSA) 1199B; shown in µM) was 4.4 µM, the “Modal MIC” value [1, 4] was 8 µg/mL and the “Modal MIC” value ([1]; shown in µM) was 4.4 µM. The “Modal MIC” value ([2]; ATCC 9144, 20 h) was 4.4 µM, the “Modal MIC” value ([2]; S. aureus (MSSA) ATCC 9144 (S), MHB, 37 °C, 20 h, OD600, min. three biological repeats) was 8 µg/mL and the “Modal MIC50” value (C. auris TDG 1912) was greater than 70.2 µM. The “Modal MIC90” value (C. auris TDG 1912) was greater than 70.2 µM, the “Modal MIC50” value (C. albicans NCPF 3281; C. albicans NCPF 3281, 50% growth inhibition, RPMI 1640 + 2% glucose, 37 °C, 20 h) was 32 µg/mL and the “Modal MIC90” value (C. albicans NCPF 3281; C. albicans NCPF 3281, 90% growth inhibition, RPMI 1640 + 2% glucose, 37 °C, 20 h) was 64 µg/mL. For the same compound, the “Modal MIC50” value (C. albicans NCPF 3281; NCPF 3281, 20 h) was 17.5 µM, the “Modal MIC90” value (C. albicans NCPF 3281; NCPF 3281, 20 h) was 35 µM and the “Modal MIC50” value (C. glabrata NCPF 8018; C. glabrata NCPF 8018, 50% growth inhibition, RPMI 1640 + 2% glucose, 37 °C, 20 h) was 128 µg/mL. The “Modal MIC90” value (C. glabrata NCPF 8018; C. glabrata NCPF 8018, 90% growth inhibition, RPMI 1640 + 2% glucose, 37 °C, 20 h) was 128 µg/mL, the “Modal MIC50” value (C. glabrata NCPF 8018; NCPF 8018, 20 h) was 70.2 µM and the “Modal MIC90” value (C. glabrata NCPF 8018; NCPF 8018, 20 h) was 70.2 µM. For the same compound, the “Modal MIC50” value (C. krusei NCPF 3876; C. krusei NCPF 3876, 50% growth inhibition, RPMI 1640 + 2% glucose, 37 °C, 20 h) was 16 µg/mL, the “Modal MIC90” value (C. krusei NCPF 3876; C. krusei NCPF 3876, 90% growth inhibition, RPMI 1640 + 2% glucose, 37 °C, 20 h) was 16 µg/mL and the “Modal MIC50” value (C. krusei NCPF 3876; NCPF 3876, 20 h) was 8.8 µM. For the same compound, the “Modal MIC90” value (C. krusei NCPF 3876; NCPF 3876, 20 h) was 8.8 µM, the “Modal MIC50” value ([3]; C. parapsilosis NCPF 3209, 50% growth inhibition, RPMI 1640 + 2% glucose, 37 °C, 20 h) was 128 µg/mL and the “Modal MIC90” value ([3]; C. parapsilosis NCPF 3209, 90% growth inhibition, RPMI 1640 + 2% glucose, 37 °C, 20 h) was 128 µg/mL. The “Modal MIC50” value ([3]; NCPF 3209, 20 h) was 70.2 µM, the “Modal MIC90” value ([3]; NCPF 3209, 20 h) was 70.2 µM and the “Modal MIC50” value (C. tropicalis NCPF 8760; C. tropicalis NCPF 8760, 50% growth inhibition, RPMI 1640 + 2% glucose, 37 °C, 20 h) was 8 µg/mL. The “Modal MIC90” value (C. tropicalis NCPF 8760; C. tropicalis NCPF 8760, 90% growth inhibition, RPMI 1640 + 2% glucose, 37 °C, 20 h) was 8 µg/mL, the “Modal MIC50” value (C. tropicalis NCPF 8760; NCPF 8760, 20 h) was 4.4 µM and the “Modal MIC90” value (C. tropicalis NCPF 8760; NCPF 8760, 20 h) was 4.4 µM.
